In US20230346948A1, “Lipid conjugated peptide inhibitors of PICK1” (University of Copenhagen, priority 2020, published 2023):
“And” between values parts separate entries of the source, which are not always exact repeats. Equal values may be shown once. “Also recorded” adds a separate entry of the source. Read-outs that look alike come from different tables or passages of the source.

Columns and labels:
[1] = tested on: diabetic neuropathy (STZ model); conditions: for maximum reversal of mechanical response threshold: 2 h post-administration
Experimental: Diabetic neuropathy (STZ) model. Diabetes is induced by a single IP injection of […]. Streptozocin solution (100 μl/10 g, Sigma-aldrich S0130, batch #WXBB7152V). Glycemia is tested before, and 7 days after injection.
The mechanical threshold response of the operated mice was measured with calibrated von Frey filaments (“up/down” method) and the 50% threshold (g) was calculated. The experimenter was blinded to mice treatment. […] Compounds were diluted in PBS (vehicle) and administered s.c. at 10 μL/g, in doses as indicated (gabapentine, 5MPK). Statistical analysis was performed using GraphPad Prism 6.0.

[2] = tested on: inflammatory pain (CFA model); experiment: Complete Freund's Adjuvant (CFA) model of inflammatory pain, von Frey; assay type: in vivo, mice; conditions: for relief of evoked pain (paw withdrawal threshold): day 2 after CFA
Experimental: Inflammatory pain: Animals were habituated to the experimental room for a minimum of 60 min before initiation of the experiment. Mechanical pain threshold was determined by von Frey measurements of both hind paws. Injury was induced on the right hind paw, whereas the contralateral left hind paw was used as internal control of the animal. Von Frey filaments ranging from 0.04 to 2 g (g=gram-forces) (0.04, 0.07, 0.16, 0.4, 0.6, 1.0, 1.4, 2.0) were used for determination of mechanical pain threshold. In the current experiment filaments in ascending order were applied to the frontocentral plantar surface of the hind paws. Mice were placed in PVC plastic boxes (11.5 cm×14 cm) on a wire mesh, and allowed 30 min habituation prior of […]. Each von Frey hair was applied five times with adequate resting periods between each application and number of withdrawals recorded. The withdrawal threshold was determined as the von Frey filament eliciting at least 3 positive trials out of the 5 applications in two consecutive filaments. A positive trial was defined as sudden paw withdrawal, flinching and/or paw licking induced by the filament. The inflammatory pain was induced by injection of 50 μL undiluted Complete Freund's Adjuvant (CFA) (F5881, Sigma) unilaterally into the intraplantar surface of the right hind paw, whereas control mice were injected with the same amount of 0.9% saline (B. Braun, Germany). All intraplantar injections were performed with and insulin needle (0.3 mL BD Micro-Fine) while the animal was under isoflurane anesthesia (2%) for maximum 60 seconds. Von Frey was applied up to 11 days after unilateral CFA injection depending on the experiment. […] Statistical analysis was performed using GraphPad Prism 6.0. Two-way RM ANOVA followed by Bonferroni's post-hoc test. Significance level set to p<0.05.
Inflammatory pain (CFA model): Animals were habituated to the experimental room for a minimum of 60 min before initiation of the experiment. Mechanical pain threshold was determined by von Frey measurements of both hind paws. Injury was induced on the right hind paw, whereas the contralateral left hind paw was used as internal control of the animal.
Von Frey filaments ranging from 0.04 to 2 g (g=gram-forces) (0.04, 0.07, 0.16, 0.4, 0.6, 1.0, 1.4, 2.0) were used for determination of mechanical pain threshold. In the current experiment filaments in ascending order were applied to the frontocentral plantar surface of the hind paws. Mice were placed in PVC plastic boxes (11.5 cm×14 cm) on a wire mesh, and allowed 30 min habituation prior of testing. Each von Frey hair was applied five times with adequate resting periods between each application and number of withdrawals recorded. The withdrawal threshold was determined as the von Frey filament eliciting at least 3 positive trials out of the 5 applications in two consecutive filaments. A positive trial was defined as sudden paw withdrawal, flinching and/or paw licking induced by the filament.
The inflammatory pain was induced by injection of 50 μL undiluted Complete Freund's Adjuvant (CFA) (F5881, Sigma) unilaterally into the intraplantar surface of the right hind paw, whereas control mice were injected with the same amount of 0.9% saline (B. Braun, Germany). All intraplantar injections were performed with an insulin needle (0.3 mL BD Micro-Fine) while the animal was under isoflurane anesthesia (2%) for maximum 60 seconds. Von Frey was applied up to 6 days after unilateral CFA injection depending on the experiment. The peptides were administered s.c. (10 μL/g)), and at different concentrations (0.4 and 2 μmol/kg). Statistical analysis was performed using GraphPad Prism 6.0. Two-way RM ANOVA followed by Dunnett's post-hoc test. Significance level set to p<0.05.

[3] = tested on: neuropathic pain (SNI model); experiment: Spared Nerve Injury (SNI) model of neuropathic pain, von Frey; assay type: in vivo, mice; conditions: for relief of evoked pain (paw withdrawal threshold): day 7 after SNI, tested 1-6 h
Experimental: Neuropathic pain. The SNI pain experiment was performed by Phenotype Expertise-Pain and CNS behaviour CRO under supervision of […]). Study was performed on 8 weeks old […] male mice (Charles River). The spared nerve injury surgery was performed on anaesthetized mice. Ligature and transection of the common peroneal and tibial distal branches of the sciatic nerve was performed, leaving the sural branch intact. […] The experimenter was blinded to mice treatment. […] All the compounds were diluted in PBS and administered s.c. at 10 μL/g. Statistical analysis was performed using GraphPad Prism 6.0. Two-way RM ANOVA followed by Bonferroni's post-hoc test. Significance level set to p<0.05. Neuropathic pain. Study was performed on 8 weeks old […] male mice (Charles River). The spared nerve injury surgery was performed on anaesthetized mice. Ligature and transection of the common peroneal and tibial distal branches of the sciatic nerve was performed, leaving the sural branch intact. […] The experimenter was blinded to mice treatment. […] All the compounds were diluted in PBS and administered 10 μmol/kg (10 μL/gram) […]. at 10 μL/g. Statistical analysis was performed using GraphPad Prism 6.0. Two-way RM ANOVA followed by Bonferroni's post-hoc test. Significance level set to p<0.05. Neuropathic pain. Study was performed on 8 weeks old […] male mice (Charles River). The spared nerve injury surgery was performed on anaesthetized mice. Ligature and transection of the common peroneal and tibial distal branches of the sciatic nerve was performed, leaving the sural branch intact. […] The mice were testes in von Frey monthly and the hyperalgesic response at 52 weeks was sustained. […] The experimenter was blinded to mice treatment. After injection, mechanical threshold was measured, 2 and 5 hrs. All the compounds were diluted in PBS and administered s.c. at 10 μL/g, 30 μmol/kg. Statistical analysis was performed using GraphPad Prism 6.0.

[4] = Solubility by visual inspection in PBS; assay type: physicochemical

## CCCCCCCCCCCCCC(=O)N(CCOCCOCCC(=O)N[C@@H](Cc1c[nH]cn1)C(=O)N[C@@H](Cc1c[nH]c2ccccc12)C(=O)N[C@@H](CC(C)C)C(=O)N[C@@H](CCCCN)C(=O)N[C@H](C(=O)O)C(C)C)CCOCCOCCC(=O)N[C@@H](Cc1c[nH]cn1)C(=O)N[C@@H](Cc1c[nH]c2ccccc12)C(=O)N[C@@H](CC(C)C)C(=O)N[C@@H](CCCCN)C(=O)N[C@H](C(=O)O)C(C)C [myr-NPEG4-(HWLKV)2]
[1]; s.c. 2 μmol/kg
  analgesic effect: weaker effect
  maximum reversal of mechanical response threshold: 49.2±7.9 % of baseline
[1]; s.c. 10 μmol/kg
  analgesic effect: strong and long-lasting effect up to 4 h
  maximum reversal of mechanical response threshold: 67.3±4.5 % of baseline
[2]; CFA model, Example 7
  paw withdrawal threshold of uninjured contralateral paw: remained unaltered
[2]; intrathecal 20 μM, 7 μL, 1 and 5 h
  relief of evoked pain (paw withdrawal threshold): significant pain relief at 1 hour and 5 hours
[2]; intrathecal 20 μM, 7 μL, 24 h
  relief of evoked pain (paw withdrawal threshold): no effect 24 hours after administration
[2]; s.c. 2.0 μmol/kg in PBS, day 2-5 after CFA, tested 2 and 5 h
  relief of evoked pain (paw withdrawal threshold), lipid variants: full and highly significant pain relief
[2]; s.c. 2 μmol/kg, tested 1, 5, 24 h
  relief of evoked pain (paw withdrawal threshold): significant pain relief when tested 1 hour post injection
[2]; s.c. 2 μmol/kg, day 5 after CFA
  relief of evoked pain (paw withdrawal threshold), PDZ motif variants: relieved pain
[2]; s.c. 10 μmol/kg, tested 1, 5, 24 h
  relief of evoked pain (paw withdrawal threshold): significant pain relief when tested 1 hour post injection
[2]; s.c. 50 μmol/kg, tested 1, 5, 24 h
  relief of evoked pain (paw withdrawal threshold): significant pain relief when tested 1 hour post injection; also recorded: significant pain relief up to 5 hours post injection
[3]; SNI model, Example 8
  paw withdrawal threshold of uninjured contralateral paw: remained unaltered
[3]; s.c. 2 μmol/kg
  relief of evoked pain (paw withdrawal threshold): no significant pain relief
[3]; s.c. 10 μmol/kg
  relief of evoked pain (paw withdrawal threshold): significant pain relief up to 3 hours post injection
[3]; s.c. 30 μmol/kg, 52 weeks after SNI, tested 2 and 5 h
  relief of evoked pain (paw withdrawal threshold), chronic pain: highly significant effect of the treatment at 5 hrs
[4]
  solubility: ≥ 130000 µM and 250000 µg/mL
